Patent US9752125B2, “Differentiation of human embryonic stem cells” (priority 2010, dated 2017)

Test system: human embryonic stem cells line H1
Assay: IN Cell Analyzer imaging of PDX1, NKX6.1 and CDX2 expressing cells at stage 4 day 4 (Example 1)
Assay type: cell-based
Procedure: Treatment 1: DMEM-High glucose+1% B27 for four days (stage 4-basal media-BM), or […].
Parallel populations of Stage 3 cells were also treated with the following protein kinase C activators—phorbol-12-myristate-13-acetate (PMA) at a concentration of 20 nM (Calbiochem #524400), or [(2S, 5S)-(E, E)-8-(5-(4-(Trifluoromethyl)pheny)-2,4-pentadienoylamino)benzolactam] (TPB) at a concentration of 50 nM (Calbiochem #565740), substituted for PDBu in treatment 3 above. At the end of stage 4, day 4, 91% of the cells of the population treated with PMA, and 90% of the cells of the population treated with TPB expressed NKX6.1.

[1] = PKC activator 20 nM in DMEM-High glucose+1% B27+100 ng/ml Noggin+1 μM ALK5 inhibitor II for four days

Compound	percentage of total population expressing NKX6.1 [1]	percentage of total population expressing NKX6.1 (TPB 50 nM substituted for PDBu in treatment 3)
CCCC(=O)O[C@@H]1[C@@H](C)[C@@]2(O)[C@@H](C=C(CO)C[C@]3(O)C(=O)C(C)=C[C@@H]23)[C@@H]2C(C)(C)[C@]12OC(=O)CCC [PDBu, phorbol-12,13-dibutyrate]	88%±4.2	
CCCCCCCCCCCCCC(=O)O[C@@H]1[C@@H](C)[C@@]2(O)[C@@H](C=C(CO)C[C@]3(O)C(=O)C(C)=C[C@@H]23)[C@@H]2C(C)(C)[C@]12OC(C)=O [PMA, phorbol-12-myristate-13-acetate]	91%	
(2S, 5S)-(E, E)-8-(5-(4-(Trifluoromethyl)phenyl)-2,4-pentadiemoylamino) benzolactam [TPB]		90%
